Assay results taken from publication PMC5910394, “Mechanically interlocked functionalization of monoclonal antibodies” (Nature Communications, 2018).
pKd: −log10 of the molar value. Starred links: 1 amine or outer side, 2 acyl side, 3 side chain; linkers in the order of their positions; H or OH if unused. Positions of bridges follow the written chain, without caps; N, C: chain ends. Non-standard residues stand in square brackets, D forms with d. Residues, ends and D or L forms follow the SMILES beside them. X1 = [N-]=[N+]=NCCOCCOCCNC(=N)NCCC[C@H](N[*:1])C(=O)[*:2]; Dip = N[C@H](C(=O)O)C(c1ccccc1)c1ccccc1

Assays:
memAb anti-HER2 = experiment: SPR binding kinetics of meditope variants to immobilized memAb anti-HER2; conditions: n=1
Ile83Glu memAb anti-HER2 = experiment: SPR binding kinetics of meditope variants to immobilized Ile83Glu memAb anti-HER2
[1] = SPR Biacore T100, memAb on CM5 chip, HBS-EP+, 1:1 model, 25°C

Structure (SMILES) | ka (memAb anti-HER2; [1]) | pKd (memAb anti-HER2; SPR, 25°C) | kd (memAb anti-HER2; SPR, 25°C) [s⁻¹] | further results
CC(C)C[C@@H]1NC(=O)[C@H](C)NC(=O)[C@H](CCCNC(=N)N)NC(=O)[C@H](CO)NC(=O)[C@H](CO)NC(=O)[C@H](CC(C)C)NC(=O)[C@H](CC(N)=O)NC(=O)[C@H](Cc2ccc(O)cc2)NC(=O)[C@H](CCC(N)=O)NC(=O)[C@@H](N)CSSC[C@@H](C(=O)O)NC(=O)[C@H](CCCCN)NC1=O | 0.97 M-1s-1 x 104 | 5.47 | 0.033 | 
CC(C)C[C@@H]1NC(=O)[C@H](CCCNC(=N)N)NC(=O)[C@H](CCCNC(=N)N)NC(=O)[C@H]([C@@H](C)O)NC(=O)[C@H](CO)NC(=O)[C@H](CC(C)C)NC(=O)[C@H](CC(=O)O)NC(=O)[C@H](Cc2ccc(Br)cc2)NC(=O)[C@H](CCC(N)=O)NC(=O)[C@@H](N)CSSC[C@@H](C(=O)O)NC(=O)[C@H](CCCCN)NC1=O | 0.91 M-1s-1 x 104 | 5.33 | 0.042 | 
CC(C)C[C@@H]1NC(=O)[C@H](CCCNC(=N)N)NC(=O)[C@H](CCCNC(=N)N)NC(=O)[C@H]([C@@H](C)O)NC(=O)[C@H](CO)NC(=O)[C@H](C(c2ccccc2)c2ccccc2)NC(=O)[C@H](CC(=O)O)NC(=O)[C@H](Cc2ccccc2)NC(=O)[C@H](CCC(N)=O)NC(=O)[C@@H](N)CSSC[C@@H](C(=O)O)NC(=O)[C@H](CCCCN)NC1=O [CQFDA(Ph)2STRRLKC] | 20 M-1s-1 x 104 | 7.40 | 0.008 | 
CC(C)C[C@@H]1NC(=O)[C@H](CCCNC(=N)N)NC(=O)[C@H](CCCNC(=N)N)NC(=O)[C@H]([C@@H](C)O)NC(=O)[C@H](CO)NC(=O)[C@H](CC(C)C)NC(=O)[C@H](CC(=O)O)NC(=O)[C@H](Cc2ccccc2)NC(=O)[C@H](CCC(N)=O)NC(=O)CCSSC[C@@H](C(=O)O)NC(=O)[C@H](CCCCN)NC1=O [(MPT) QFDLSTRRLKC] | 1.8 M-1s-1 x 104 | 6.00 | 0.018 | 
CC(C)C[C@@H]1NC(=O)[C@H](CCCNC(=N)N)NC(=O)[C@H](CCCNC(=N)N)NC(=O)[C@H]([C@@H](C)O)NC(=O)[C@H](CO)NC(=O)[C@H](CC(C)C)NC(=O)[C@H](CC(=O)O)NC(=O)[C@H](Cc2ccccc2)NC(=O)[C@H](CCC(N)=O)NC(=O)CCCCCCNC(=O)[C@H](CCCCN)NC1=O | 2.1 M-1s-1 x 104 | 5.24 | 0.12 | 
CC(=O)N[C@H]1CSSC[C@@H](C(=O)NCC(=O)NCC(=O)N[C@@H](CO)C(=O)N[C@@H](CCCCN)C(=O)O)NC(=O)[C@H](CCCNC(=N)N)NC(=O)[C@H](CC(C)C)NC(=O)[C@H](CCCNC(=N)N)NC(=O)[C@H](CCCNC(=N)N)NC(=O)[C@H]([C@@H](C)O)NC(=O)[C@H](CO)NC(=O)[C@H](CC(C)C)NC(=O)[C@H](CC(=O)O)NC(=O)[C@H](Cc2ccccc2)NC(=O)[C@H](CCC(N)=O)NC1=O | 2.8 M-1s-1 x 104 | 6.68 | 0.006 | pKd (memAb anti-HER2; SPR, 37 °C): 6.46; ka (memAb anti-HER2; SPR, 37 °C): 7.5 M-1s-1 x 104; kd (memAb anti-HER2; SPR, 37 °C): 0.026 s⁻¹; pKd (Ile83Glu memAb anti-HER2; SPR, 25°C, n=1): 9.36; ka (Ile83Glu memAb anti-HER2; SPR, 25°C, n=1): 71 M-1s-1 x 104; pKd (Ile83Glu memAb anti-HER2; SPR, 37°C, n=4, mean (±SD)): 8.40; ka (Ile83Glu memAb anti-HER2; SPR, 37°C, n=4, mean (±SD)): 16 (±6) M-1s-1 x 104
CC(C)C[C@@H]1NC(=O)[C@H](CCCNC(=N)N)NC(=O)[C@H](CCCNC(=N)N)NC(=O)[C@H]([C@@H](C)O)NC(=O)[C@H](CO)NC(=O)[C@H](CC(C)C)NC(=O)[C@H](CC(=O)O)NC(=O)[C@H](Cc2ccc(O)cc2)NC(=O)[C@H](CCC(N)=O)NC(=O)[C@@H](N)CSSC[C@@H](C(=O)O)NC(=O)[C@H](CCCCN)NC1=O | 2.8 M-1s-1 x 104 | 5.41 | 0.11 | 
CC(=O)N[C@H]1CSSC[C@@H](C(=O)NCC(=O)NCC(=O)N[C@@H](CO)C(=O)N[C@@H](CCCCN)C(=O)O)NC(=O)[C@H](CCCNC(=N)N)NC(=O)[C@H](CC(C)C)NC(=O)[C@H](CCCNC(=N)N)NC(=O)[C@H](CCCNC(=N)NCCOCCOCCN=[N+]=[N-])NC(=O)[C@H]([C@@H](C)O)NC(=O)[C@H](CO)NC(=O)[C@H](C(c2ccccc2)c2ccccc2)NC(=O)[C@H](CC(=O)O)NC(=O)[C@H](Cc2ccccc2)NC(=O)[C@H](CCC(N)=O)NC1=O (Ac-CQFD[Dip]ST[X1]RLRCGGSK-OH; disulfide 1-12) |  |  |  | pKd (Ile83Glu memAb anti-HER2; SPR sensogram (Fig. 1c E83 / Supplementary Fig. 1a), 37 °C, n = 1): 8.68; half-life of the interaction (τ) (Ile83Glu memAb anti-HER2; SPR, 37 °C): 1.38 h
CC(C)C[C@@H]1NC(=O)[C@H](CCCNC(=N)N)NC(=O)[C@H](CCCNC(=N)N)NC(=O)[C@H]([C@@H](C)O)NC(=O)[C@H](CO)NC(=O)[C@H](CC(C)C)NC(=O)[C@H](CC(=O)O)NC(=O)[C@H](C(c2ccccc2)c2ccccc2)NC(=O)[C@H](CCC(N)=O)NC(=O)[C@@H](N)CSSC[C@@H](C(=O)O)NC(=O)[C@H](CCCCN)NC1=O | 0.92 M-1s-1 x 104 | 5.59 | 0.024 | 
